# The source made the active and inactive calls. No cut-off for these calls is given here.
# Tests used:
# Homo sapiens [1] = organism: Homo sapiens; assay: Inhibition of RNase A (unknown origin) assessed as reduction in tRNA substrate degradation at 0.6 to 1 mM pretreated for 3 hrs followed by substrate addition measured after 30 mins by ethidium bromide staining based agarose gel electrophoresis
# [2] = Inhibition of RNase A (unknown origin) using varying levels of 2',3'-cCMP as substrate by Lineweaver-burk plot analysis; set-up: species or system Homo sapiens
# Homo sapiens [3] = organism: Homo sapiens; assay: Inhibition of RNase A (unknown origin) assessed as reduction in tRNA substrate degradation at 0.35 to 0.5 mM pretreated for 3 hrs followed by substrate addition measured after 30 mins by ethidium bromide staining based agarose gel electrophoresis
# Homo sapiens [4] = organism: Homo sapiens; assay: Inhibition of RNase A (unknown origin) assessed as reduction in tRNA substrate degradation at 0.25 to 0.3 mM pretreated for 3 hrs followed by substrate addition measured after 30 mins by ethidium bromide staining based agarose gel electrophoresis
# Homo sapiens [5] = organism: Homo sapiens; assay: Inhibition of RNase A (unknown origin) assessed as reduction in tRNA substrate degradation at 0.1 to 0.15 mM pretreated for 3 hrs followed by substrate addition measured after 30 mins by ethidium bromide staining based agarose gel electrophoresis
# Homo sapiens [6] = organism: Homo sapiens; assay: Inhibition of RNase A (unknown origin) assessed as reduction in tRNA substrate degradation at 0.1 to 0.2 mM pretreated for 3 hrs followed by substrate addition measured after 30 mins by ethidium bromide staining based agarose gel electrophoresis
inhibition (Homo sapiens [1]),Ki [2],inhibition (Homo sapiens [3]),inhibition (Homo sapiens [4]),inhibition (Homo sapiens [5]),inhibition (Homo sapiens [6]),SMILES
Active,563 µM,Active,Active,Active,Active,CC1(C)O[C@H]2O[C@H](Cn3nncc3[C@H]3O[C@@H]4OC(C)(C)O[C@@H]4[C@H]3OCc3ccccc3)[C@H](O)[C@H]2O1
–,66 µM,–,–,–,–,Cc1cn([C@@H]2O[C@H](C(=O)N[C@H](CC(=O)O)C(=O)N[C@H]3C[C@H](n4cc(C)c(=O)[nH]c4=O)O[C@@H]3CO)[C@@H](O)[C@H]2O)c(=O)[nH]c1=O
